Activity calls are given as the source filed them.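 Rule for the calls: active = compounds giving half or more protection of infected cells from virus-caused growth loss, again on retest; inactive = the rest.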 Where a SMILES comes first, the peptide text is derived from it. The star is where a group is joined. Boc = CC(C)(C)OC(=O)*
System: CEM cells HIV-1 protection, formazan growth assay
Experiment: NCI AIDS Antiviral Assay
Settings: for IC50: measured here: growth of uninfected CEM cells
How it was run: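 Category rules: moderately active means at least 50% protection on retest, and confirmed active means 100% protection reproducibly. The underlying data came from a formazan growth assay in HIV-1-infected CEM cells.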

Cc1ccc(N2C(=O)N(c3ccc(C)cc3)C3(Sc4ccccc4N3C)C2=O)cc1 (stereo not given)
EC50: > 12.6 µM
IC50: > 12.6 µM

O=Cc1cn(C(=O)c2ccccc2)c2ccccc12
outcome: inactive

O=C(NCCCCN1CC2CCCC2C1)C(C1CCCCC1)C1CCCCC1 (stereo not given)
EC50: > 200 µM
IC50: 10.7 µM

O=C(NCCCCNCCCNC(=O)C(F)(F)F)C(F)(F)F
EC50: > 200 µM
IC50: > 200 µM

Nc1ccccc1SC(CC(=O)c1ccccc1)c1ccc2c(c1)OCO2 (stereo not given)
EC50: > 200 µM
IC50: 10.7 µM

Cn1ccnc1CCc1c(Cl)cccc1Cl
EC50: > 851 µM
IC50: 123 µM

O=C(CC(=O)c1cccnc1)NC(=O)c1ccccc1
EC50: > 355 µM
IC50: > 355 µM

O=C(O)CCCC#CCCCC(=O)O
EC50: > 200 µM
IC50: > 200 µM

CCOC(=O)c1c(NC(=S)Nc2ccccc2)sc2c1CCN(C)C2
EC50: > 200 µM
IC50: > 200 µM

CC1(CO)C(O)CCC2(C)C1C(O)CC1CC3CC12CCC3(O)CO (stereo not given)
EC50: > 708 µM
IC50: 138 µM

O=[N+]([O-])c1ccccc1Nc1ccccc1[N+](=O)[O-]
EC50: > 52.5 µM
IC50: > 52.5 µM

c1ccc2c(c1)Sc1nccc3ccnc-2c13
EC50: > 200 µM
IC50: 13.8 µM

Cc1cc2nc3ccc(=[N+](C)C)cc-3sc2cc1N
EC50: > 117 µM
IC50: 0.676 µM

CC(=O)Nc1ccc(S(=O)(=O)Nc2ccc(S(=O)(=O)c3ccc(-n4sc5ccccc5c4=O)cc3)cc2)cc1
EC50: 16.6 µM
IC50: 102 µM

COC(=O)C(Cc1ccc2c(c1)OCO2)(NC(=O)c1ccccc1)P(=O)(OC)OC (stereo not given)
EC50: > 575 µM
IC50: > 575 µM

CCN(CC)CCN(C)CCc1ccc(Br)cc1
EC50: > 126 µM
IC50: 112 µM

COC1OC(CO)C(NC2=N[C@@H]3[C@H](O2)[C@@H](O)[C@H](O)[C@]3(O)CO)C(O)C1O (stereo not given in full)
EC50: > 50.1 µM
IC50: > 50.1 µM

CC(C)(C)OC(=O)NC1CCCC1=O (stereo not given)
outcome: inactive

O=C1C2c3[nH]c4ccccc4c3[C@@H]3CCCCC3C2C(=O)N1c1ccccc1 (stereo not given in full)
outcome: inactive

COC(=O)c1cc(C(=CCCOS(C)(=O)=O)c2cc(Cl)c(OC)c(C(=O)OC)c2)cc(Cl)c1OC
EC50: > 200 µM
IC50: 14.5 µM

Cc1cn(C2CC(N=[N+]=[N-])C(COC(=O)CCCCCCCCCCN=[N+]=[N-])O2)c(=O)[nH]c1=O (stereo not given)
EC50: 0.0389 µM
IC50: 28.8 µM

CCOC(=O)CC1c2ccc(O)cc2OC(=O)C1c1ccc(N)cc1 (stereo not given)
EC50: > 200 µM
IC50: > 200 µM

CCN1CCC(O)(/C=C/c2ccc(C)cc2C)C(C(=O)/C=C/c2ccc(C)cc2C)C1 (stereo not given)
EC50: > 200 µM
IC50: 3.24 µM

C=CCC1(C#N)C(=S)NC2=C(C(=O)CC(C)(C)C2)C1c1ccccc1 (stereo not given)
EC50: > 200 µM
IC50: > 200 µM

C/C=C(\C)c1cc(OC)c(C)c2c1C(=O)Oc1c(C)c(O)c(Cl)c(/C(C)=C/C)c1O2
outcome: inactive

COC(=O)CNC(=O)C(Cc1ccccc1)NC(=O)C(Cc1ccccc1)NC(=O)OC(C)(C)C (stereo not drawn) (Boc-Phe-Phe-Gly-OMe; configuration not given here)
EC50: > 200 µM
IC50: 24 µM

Cc1ccccc1NC(=O)c1c(C)oc2c1C(=O)c1ccccc1C2=O
EC50: > 39.8 µM
IC50: > 39.8 µM

CCOc1ccc(NC(=O)C(=O)NO)cc1
EC50: > 302 µM
IC50: 178 µM

Cc1ccc(-c2oc3ccccc3c(=O)c2O)cc1
EC50: > 200 µM
IC50: 53.7 µM

O=C(Nc1ccn(C2CC(I)C(COC(c3ccccc3)(c3ccccc3)c3ccccc3)O2)c(=O)n1)c1ccccc1 (stereo not given)
EC50: > 200 µM
IC50: 7.59 µM

CCOC(=O)C12CN(C34CC5CC(CC(C5)C3)C4)CC(C(=O)OCC)(C1=O)C(c1ccccc1)OC2c1ccccc1 (stereo not given)
EC50: > 30.9 µM
IC50: 13.5 µM

COc1ccc(-c2coc3cc(O)ccc3c2=O)cc1
EC50: > 200 µM
IC50: > 100 µM

CN(C)CCN1C(=O)CN=C(c2ccccc2Cl)c2cc(Cl)ccc21
EC50: > 200 µM
IC50: 117 µM

CC(C)(C)C(=O)OCOP(=O)(OCCOCn1cnc2c(=O)[nH]c(N)nc21)OCOC(=O)C(C)(C)C
outcome: inactive

CCC(C#N)NCc1ccc(CNC(C#N)CC)cc1 (stereo not given)
EC50: > 200 µM
IC50: > 200 µM

COc1cc(NS(=O)(=O)c2ccc(N)cc2)nc(OC)n1
EC50: > 200 µM
IC50: > 200 µM

CN(C)C=Nc1c2ccccc2nc2ccccc12
EC50: > 200 µM
IC50: 2.45 µM

COc1ccc(C2(OC)Oc3cc(OC)ccc3C(=O)C2(O)OC)cc1 (stereo not given)
EC50: > 200 µM
IC50: 11 µM

COc1cc(OC)cc(N(C)Cc2cnc3nc(N)nc(N)c3c2C)c1
EC50: > 200 µM
IC50: 0.138 µM

CCOc1cccc2cccnc12
EC50: > 200 µM
IC50: > 200 µM

O=c1oc2c3c4c(cc2c2c1CCC2)CCCN4CCC3
EC50: > 6.76 µM
IC50: > 6.76 µM

NC(=O)c1c(N)ncn1C1OC(CO)C(F)C1O (stereo not given)
EC50: > 200 µM
IC50: > 200 µM

NC(CSSCC(NC(=O)OCc1ccccc1)C(=O)O)C(=O)O (stereo not given)
EC50: > 200 µM
IC50: > 200 µM

Cc1ccc(-n2cnc(C(=N)C#N)c2N)cc1
EC50: > 200 µM
IC50: 123 µM

N#CC(C#N)=Cc1cc(O)c(O)c(O)c1
EC50: > 200 µM
IC50: 31.6 µM

— PubChem BioAssay AID179 (DTP/NCI, 2004)
